Source: US7652155B2, “Diamine derivative, production process therefor and antioxidant” (Nippon Soda Co., Ltd., priority 2003, dated 2010)
Where a name gives a salt, the structure may show the parent alone. Read-outs that look alike come from different tables or passages of the source.

Experiments:
[1] = target: T1, 15-lipoxygenase (15-LO) (Oryctolagus cuniculus, UniProt P12530); test: 15-LO inhibitory activity (15-LO from rabbit reticulocytes, linoleic acid); assay type: biochemical; conditions: 256 μM linoleic acid, 4° C., read-out: Lipoxygenase inhibitory action 50% inhibitory concentration (IC50), 15-LO
T1 construct: 15-LO obtained from rabbit reticulocytes; from tissue; host or cells: rabbit reticulocytes
T1 sequence (P12530 1-663): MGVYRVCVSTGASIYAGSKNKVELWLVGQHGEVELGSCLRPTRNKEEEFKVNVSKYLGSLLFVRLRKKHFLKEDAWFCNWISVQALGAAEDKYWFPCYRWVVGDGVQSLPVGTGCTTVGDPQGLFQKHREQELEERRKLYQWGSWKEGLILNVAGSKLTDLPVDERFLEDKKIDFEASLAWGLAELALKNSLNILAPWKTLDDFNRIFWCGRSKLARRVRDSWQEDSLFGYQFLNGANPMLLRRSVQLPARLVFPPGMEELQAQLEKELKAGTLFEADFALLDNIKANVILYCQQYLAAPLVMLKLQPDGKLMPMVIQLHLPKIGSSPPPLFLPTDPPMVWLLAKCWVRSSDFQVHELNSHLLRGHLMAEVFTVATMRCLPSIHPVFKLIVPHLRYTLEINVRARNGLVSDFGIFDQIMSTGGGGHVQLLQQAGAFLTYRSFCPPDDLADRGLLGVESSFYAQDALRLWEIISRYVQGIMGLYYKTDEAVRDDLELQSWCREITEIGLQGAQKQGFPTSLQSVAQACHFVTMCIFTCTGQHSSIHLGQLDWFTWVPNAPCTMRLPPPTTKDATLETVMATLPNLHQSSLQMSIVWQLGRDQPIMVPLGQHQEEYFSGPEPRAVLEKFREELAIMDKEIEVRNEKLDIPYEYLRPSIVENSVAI
Procedure: 15-LO inhibitory activity was measured using a variation of the method of Auerbach et al. (Auerbach B. J. et al., Anal. Biochem., 201, 375 to 380, 1992). Namely, after pre-incubating (4° C., 15 minutes) in phosphate buffer (pH 7.4) 15-LO obtained from rabbit reticulocytes and a test compound dissolved in DMSO (final concentration: 1%), 256 μM linoleic acid was added and the resulting solution was additionally incubated (4° C., 10 minutes). The resulting 15-HETE that formed was quantified by spectrophotometry (OD660 nm), and the 50% formation inhibitory concentration (μM) of the test compound with respect to 15-LO was calculated from that value.

[2] = test system: lipid peroxides in retina homogenate; test: Retina migration: formation of lipid peroxides in retina ex vivo after oral administration; parameters: species or system rat; conditions: male SD rats, retinas removed 30 minutes later, auto-oxidized 1 hour at 37° C.
Procedure: The retina migration of the compounds according to the present invention was evaluated. The test compounds dissolved or suspended in 0.1 N aqueous hydrochloric acid solution or 1% polyethylene hardened castor oil (Nikkol HCO-60) solution were orally administered to male SD rats (age: 6 weeks) in groups of three animals each followed by removing both eyes 30 minutes later and separating the retinas while cooling with ice. The retinas were homogenized with a Polytron Microhomogenizer (NS-310E: manufactured by Niti-On Medical and Physical Instruments) in 0.1 M Tris-HCl buffer (pH 7.4) while cooling with ice to prepare 5% homogenates. The homogenates were then auto-oxidized for 1 hour at 37° C., and the amounts of lipid peroxide that formed were quantified using the thiobarbituric acid method (Masugi, et al., Vitamin, 51, 21 to 29, 1977).

[3] = test system: 66 kDa protein in rat retina; test: Inhibitory action on increases in 66 kDa protein in UV-A irradiated rat retina; assay type: in vivo; conditions: male Wistar rats, 100 mg/kg p.o. 30 minutes before UV-A (12 mW/cm^2, 30 minutes); retinas 48 hours after irradiation; N = 3
Procedure: The inhibitory action of the compound according to the present invention on increases in 66 kDa protein in rat retina irradiated with UV light was evaluated. The test compound was dissolved or suspended in 0.1 N aqueous hydrochloric acid solution or 1% polyethylene hardened castor oil (Nikkol HCO-60) and orally administered to male Wistar rats (age: 7-9 weeks) followed 30 minutes later by irradiation of the right eye with UV-A (12 mW/cm^2) for 30 minutes using a UV spot light source. In addition, the left eye was not irradiated and used as a control. The rats were housed in an environment blocked from interior light both during UV-A irradiation and for 2 hours before and after irradiation. The retinas were separated 48 hours after irradiation and 5% homogenates were prepared using the same method as described in Example 4. Changes in retina protein were determined by SDS-polyacrylamide gel electrophoresis in accordance with the method of Lammli (Nature, […], 680 to 685, 1970). […] Subsequently, the gel was decolored with a mixture of ethanol, acetic acid, and water (25:8:65) and the 66 kDa protein following electrophoresis was analyzed by densitrography. The amount of protein in the samples was determined using the Lowry method.

[4] = test system: mice administered ferrous chloride into the spinal subarachnoid cavity; test: Antioxidative action in vivo: abnormal behavior and mortality after ferrous chloride into the spinal subarachnoid cavity; parameters: species or system mouse; conditions: male Slc:ICR mice, 30 minutes before ferrous chloride, score after 60 minutes
Procedure: The antioxidative action in vivo of the compounds according to the present invention was evaluated according to the method described in the Journal of Medical Chemistry (J. Med. Chem., 1997, vol. 40, pp. 559 to 573) based on the inhibitory effects on abnormal behavior and mortality rate following administration of ferrous chloride into the spinal subarachnoid cavity of mice. Male Slc:ICR mice (age: 5 weeks) (purchased from Japan SLC) were used in groups of 3 to 7 animals each, and were administered 5 μl of aqueous physiological saline solution containing 50 mM ferrous chloride into the spinal column between the 5th and 6th lumbar vertebra. […] The test compounds were dissolved or suspended in an aqueous physiological saline solution or an aqueous physiological saline solution containing 1% polyethylene hardened castor oil (manufactured by Nikko Chemicals CO., LTD. under the name of NIKKOL HCO-60), and administered intraperitoneally or orally 30 minutes before the administration of ferrous chloride. The 50% inhibitory dose (hereinafter, abbreviated as ID50) of each test compound was determined from the score of a control group (physiological saline treated group) and the score of each test compound treated group.

[5] = test system: lipid peroxide in homogenates of brain, heart and kidneys; test: Tissue migration: antioxidative action on lipids ex vivo after intraperitoneal administration; assay type: in vivo; conditions: Rattus norvegicus, ip, 0.5 h, male SD rats, 100 mg/kg intraperitoneally, 30 minutes after administration
Procedure: (§1) The antioxidative action on lipids in vitro of the compounds according to the present invention was evaluated in accordance with the method of Malvy et al. (Malvy C. et al.,) described in Biochemical and Biophysical Research Communications, 1980, vol. 95, pp. 734 to 737,) by measuring the lipid peroxide activity in a rat brain homogenate. Namely, the rat brain was removed followed by the addition of five volumes of an aqueous solution of phosphate buffered saline (pH 7.4) (hereinafter, abbreviated as PBS) to the brain while cooling with water, homogenizing with a Teflon homogenizer, and centrifuging for 20 minutes at 10,000 g to collect the supernatant as a brain homogenate. 500 μM cysteine, 5 μM ferrous sulfate, and 100 mM KCl were added to the resulting brain homogenate followed by incubating for 30 minutes at 37° C. and measuring the malondialdehyde that formed due to decomposition of lipid peroxide using the thiobarbituric acid method. The 50% inhibitory concentrations (hereinafter, abbreviated as IC50) of the compounds according to the present invention were then determined from the measured values.
Tissue migration of the compounds according to the present invention was evaluated by measuring the antioxidative action on lipids ex vivo. A test compound dissolved or suspended in an aqueous physiological saline solution or aqueous physiological saline solution containing 1% polyethylene hardened castor oil (Nikko Chemicals: Nikkol HCO-60) was intraperitoneally administered to male SD rats (age: 6 weeks) (purchased from Japan SLC) in groups of 3 animals each at a dose of 100 mg/kg. The animals were sacrificed by exsanguination by severing the carotid artery 30 minutes after administration followed by removing the brain, heart and kidneys. The lipid peroxide activity of homogenates of each tissue was measured using the method described in Example 4. The inhibition rates of the test compounds in each tissue were determined from the amounts of lipid peroxide formed in a control group (physiological saline dose group) and test compound groups.

[6] = Acute oral toxicity in mice; conditions: mouse, in vivo; male mice, single oral dose, observed for 7 days
Text: A single dose of the test compounds according to the present invention was orally administered to male mice followed by observing for 7 days to determine the mortality rate. The compound indicated below was used for Control Drug 3.

[7] = target: T2, 5-lipoxygenase (5-LO) (Homo sapiens, UniProt P09917); test: 5-LO inhibitory activity (leucotriene B4 formation in human peripheral blood mononuclear cells, A23187); assay type: cell-based; conditions: 30 μM A23187, leucotriene B4, read-out: Lipoxygenase inhibitory action 50% inhibitory concentration (IC50), 5-LO
T2 construct: human peripheral blood mononuclear cells; endogenous in cells; host or cells: human peripheral blood mononuclear cells
T2 sequence (P09917 1-674): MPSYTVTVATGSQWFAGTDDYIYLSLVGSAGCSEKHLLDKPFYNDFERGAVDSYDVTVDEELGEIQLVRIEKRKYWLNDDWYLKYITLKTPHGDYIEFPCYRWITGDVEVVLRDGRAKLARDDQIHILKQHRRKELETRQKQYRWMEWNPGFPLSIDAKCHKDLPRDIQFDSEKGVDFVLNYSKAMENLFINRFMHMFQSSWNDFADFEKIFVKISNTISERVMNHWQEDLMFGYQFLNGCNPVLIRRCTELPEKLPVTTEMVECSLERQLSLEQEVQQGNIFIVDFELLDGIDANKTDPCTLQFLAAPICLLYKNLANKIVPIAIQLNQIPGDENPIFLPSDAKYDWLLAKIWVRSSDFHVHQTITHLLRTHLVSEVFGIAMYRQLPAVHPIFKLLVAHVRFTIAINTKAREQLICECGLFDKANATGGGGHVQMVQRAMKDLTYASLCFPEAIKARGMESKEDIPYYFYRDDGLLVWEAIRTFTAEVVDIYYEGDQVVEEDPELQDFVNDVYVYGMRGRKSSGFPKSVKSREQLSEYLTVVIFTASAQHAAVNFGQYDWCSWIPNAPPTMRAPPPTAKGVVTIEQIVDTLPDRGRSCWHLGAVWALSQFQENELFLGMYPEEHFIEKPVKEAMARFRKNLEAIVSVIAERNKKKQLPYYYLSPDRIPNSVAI
Procedure: 5-LO inhibitory activity was measured using a variation of the method of Carter et al. (Carter G. W. et al., J. Pharmacol. Exp. Ther., 256, 929 to 937, 1991). Namely, after pre-incubating (37° C., 15 minutes) in Hank's solution human peripheral blood mononuclear cells and a test compound dissolved in DMSO (final concentration: 1%), 30 μM A23187 was added and the resulting solution was additionally incubated (37° C., 30 minutes). The resulting leucotriene B4 that formed was quantified by enzyme immunoassay, and the 50% formation inhibitory concentration (μM) of the test compound with respect to 5-LO was calculated from that value.

[8] = test system: lipid peroxide in rat brain homogenate; test: Antioxidative action on lipids in vitro (lipid peroxide activity in rat brain homogenate, thiobarbituric acid method); assay type: biochemical; conditions: 500 μM cysteine, 5 μM ferrous sulfate, 100 mM KCl, 30 minutes at 37° C., malondialdehyde, read-out: 50% inhibitory concentration of anti-lipid peroxide action in vitro (IC50)
Procedure: as §1

[9] = brain homogenate, read-out: Inhibition rate of ex vivo anti-lipid peroxide action, Brain
[10] = heart homogenate, read-out: Inhibition rate of ex vivo anti-lipid peroxide action, Heart
[11] = kidney homogenate, read-out: Inhibition rate of ex vivo anti-lipid peroxide action, Kidney

Row | Structure (SMILES) | IC50 [1] [nM] | Inhibitory effect on formation of lipid peroxides in retina ex vivo 30% inhibitory concentration (ID30, oral administration) [2] [mg/kg] | Ratio of 66 kDa protein in UV-irradiated rat retina (right eye: irradiated/left eye: non-irradiated) [3] | Antioxidative action in vivo 50% inhibitory dose (ID50), Intraperitoneal administration [4] [mg/kg] | Antioxidative action in vivo 50% inhibitory dose (ID50), Oral administration [4] [mg/kg] | inhibition at 100 mg/kg [5, 9] [%] | inhibition at 100 mg/kg [5, 10] [%] | inhibition at 100 mg/kg [5, 11] [%] | LD50 at 7 days [6] [mg/kg] | IC50 [7] [nM] | IC50 [8] [nM]
1 | Cc1c(C)c2c(c(CN)c1N)CC(C)(C)O2 [Compound No. 1] | 3740 | 16 | 1.45 | 1.8 | 6 | 93 | 81 | 83 | > 1000 | > 10000 | 
2 | Cc1c(C)c2c(c(CN)c1N)CCC(C)(C)O2 [Compound No. 2, 2,2,7,8-tetramethyl-5-aminomethyl-6-aminochroman•-dihydrochloride] |  | 6.9 |  | 2.6 | 12 | 98 | 96 | 97 | > 1000 |  | 340
3 | Cc1c(C)c2c(c(C)c1N)CC(C)(CN1CCC(c3ccccc3)CC1)O2 (centres unmarked) [Control Drug 2, reference compound] |  |  |  |  |  |  |  |  | < 300 | > 10000 | 
4 | Cc1c(C)c2c(c(N)c1N)CC(C)(C)O2 [Control drug 1, reference compound] |  |  |  | >30 | >30 | 94 | 84 | 87 |  |  | 1400
